Assay results: patent publication US20210047291A1, “PESTICIDALLY ACTIVE HETEROCYCLIC DERIVATIVES WITH SULFUR CONTAINING SUBSTITUENTS” (SYNGENTA PARTICIPATIONS AG, priority 2018, published 2021)

What was measured:
[1] = system: Diabrotica Balteata (Corn Root Worm); assay: Example B2: Diabrotica balteata, maize sprouts, L2 larvae; format: in vivo; conditions: Diabrotica balteata, 96 h, application rate of 200 ppm; L2 larvae; 4 days after infestation; read-out: effect in at least one of the two categories (mortality or growth inhibition)
Method: Maize sprouts placed onto an agar layer in 24-well microtiter plates were treated with aqueous test solutions prepared from 10,000 ppm DMSO stock solutions by spraying. After drying, the plates were infested with L2 larvae (6 to 10 per well). The samples were assessed for mortality and growth inhibition in comparison to untreated samples 4 days after infestation.

[2] = system: Frankliniella occidentalis (Western Flower Thrips); assay: Example B4: Frankliniella occidentalis feeding/contact activity, sunflower leaf discs; format: in vivo; conditions: foliar, 168 h, application rate of 200 ppm, mixed ages, 7 days after infestation
Method: (§1) Sunflower leaf discs were placed on agar in 24-well microtiter plates and sprayed with aqueous test solutions prepared from 10,000 DMSO stock solutions. After drying the leaf discs were infested with a Frankliniella population of mixed ages. The samples were assessed for mortality 7 days after infestation.

[3] = system: Thrips tabaci (Onion Thrips); assay: Example B11: Thrips tabaci feeding/contact activity, sunflower leaf discs; format: in vivo; conditions: foliar, 144 h, application rate of 200 ppm, mixed ages, 6 days after infestation
Method: as §1, with “10,000 ppm” for “10,000”, “thrips” for “Frankliniella”, “6” for “7”

[4] = system: Euschistus heros (Neotropical Brown Stink Bug); assay: Example B3: Euschistus heros, soybean leaves, N2 nymphs; format: in vivo; conditions: Euschistus heros, 120 h; application rate of 200 ppm; N2 nymphs; 5 days after infestation; read-out: effect in at least one of the two categories (mortality or growth inhibition)
Method: Soybean leaves on agar in 24-well microtiter plates were sprayed with aqueous test solutions prepared from 10,000 ppm DMSO stock solutions. After drying the leaves were infested with N2 nymphs. The samples were assessed for mortality and growth inhibition in comparison to untreated samples 5 days after infestation.

[5] = system: Myzus persicae (Green peach aphid); assay: Example B5: Myzus persicae feeding/contact activity, sunflower leaf discs; format: in vivo; conditions: Myzus persicae, foliar, 144 h; application rate of 200 ppm; mixed ages; 6 days after infestation; read-out: mortality
Method: Sunflower leaf discs were placed onto agar in a 24-well microtiter plate and sprayed with aqueous test solutions prepared from 10,000 ppm DMSO stock solutions. After drying, the leaf discs were infested with an aphid population of mixed ages. The samples were assessed for mortality 6 days after infestation.

[6] = system: Myzus persicae (Green peach aphid); assay: Example B6: Myzus persicae systemic activity, pea seedlings; format: in vivo; conditions: for mortality at 24 ppm: Myzus persicae, 144 h, test rate of 24 ppm, mixed ages, 6 days after placing seedlings into test solutions, read-out: mortality
Method: Roots of pea seedlings infested with an aphid population of mixed ages were placed directly into aqueous test solutions prepared from 10,000 DMSO stock solutions. The samples were assessed for mortality 6 days after placing seedlings into test solutions.

[7] = system: Plutella xylostella (Diamond Back Moth); assay: Example B7: Plutella xylostella, artificial diet, L2 larvae; format: in vivo; conditions: 120 h, application rate of 200 ppm, L2 larvae, 5 days after infestation, read-out: effect in at least one of the two categories (mortality or growth inhibition)
Method: 24-well microtiter plates with artificial diet were treated with aqueous test solutions prepared from 10,000 ppm DMSO stock solutions by pipetting. After drying, the plates were infested with L2 larvae (10 to 15 per well). The samples were assessed for mortality and growth inhibition in comparison to untreated samples 5 days after infestation.

[8] = system: Bemisia tabaci (Cotton White Fly); assay: Example B1: Bemisia tabaci feeding/contact activity, cotton leaf discs; format: in vivo; conditions: foliar, 144 h, application rate of 200 ppm, adult white flies, 6 days after incubation
Method: Cotton leaf discs were placed on agar in 24-well microtiter plates and sprayed with aqueous test solutions prepared from 10,000 ppm DMSO stock solutions. After drying the leaf discs were infested with adult white flies. The samples were checked for mortality 6 days after incubation.

[9] = system: Spodoptera littoralis (Egyptian Cotton Leaf Worm); assay: Example B9: Spodoptera littoralis, cotton leaf discs (mortality, anti-feeding, growth inhibition); format: in vivo; conditions: foliar, 72 h, application rate of 200 ppm, L1 larvae, 3 days after infestation, read-out: control (mortality, anti-feeding effect or growth inhibition)
Method: Cotton leaf discs were placed onto agar in 24-well microtiter plates and sprayed with aqueous test solutions prepared from 10,000 ppm DMSO stock solutions. After drying the leaf discs were infested with five L1 larvae. The samples were assessed for mortality, anti-feeding effect, and growth inhibition in comparison to untreated samples 3 days after infestation. Control of Spodoptera littoralis by a test sample is given when at least one of the categories mortality, anti-feedant effect, and growth inhibition is higher than the untreated sample.

[10] = system: Tetranychus urticae (Two-Spotted Spider Mite); assay: Example B10: Tetranychus urticae feeding/contact activity, bean leaf discs; format: in vivo; conditions: foliar, 192 h, application rate of 200 ppm, mixed population (mobile stages), 8 days after infestation
Method: Bean leaf discs on agar in 24-well microtiter plates were sprayed with aqueous test solutions prepared from 10,000 ppm DMSO stock solutions. After drying the leaf discs were infested with a mite population of mixed ages. The samples were assessed for mortality on mixed population (mobile stages) 8 days after infestation.

Melodoigyne incognita = assay: Example B14: Melodoigyne incognita juvenile mobility, in vitro profiling in 96 well plate; format: in vivo; conditions: 200 ppm; after 24 h; second stage juveniles; read-out: control (juvenile mobility)
Procedure, shortened: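 Second-stage juveniles (100–150 per well, freshly harvested) were exposed in triplicate to test solutions prepared at 1000, 200, 100, 50, 25 and 12.5 ppm before nematode suspension was added. Plates were kept 24 h at room temperature in the dark. Juvenile mobility was measured by imaging and compared with 12 untreated replicates.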

[11] = system: Myzus persicae (Green peach aphid); assay: Example B19: Myzus persicae, mixed population, contact/feeding, pepper plants; format: in vivo; conditions: Concentration 3 ppm, MYZUPE (contact)
Method: Pepper plants were infested with mixed aged aphid population and were treated 1 day after infestation with diluted test solutions in a spray chamber. 5 days after treatment samples were assessed for mortality.

[12] = system: Myzus persicae (Green peach aphid); assay: Example B20: Myzus persicae, mixed population, systemic into soil (drench), pea seedlings; format: in vivo; conditions: Concentration 0.2 ppm, MYZUPE (drench)
Method: Pea seedlings cultivated in field soil and infested 1 day before treatment with mixed aged aphid population were treated as drench application and checked for mortality 7 days after treatment.

[13] = system: Nilaparvata lugens (Brown Plant Hopper); assay: Example B21: Nilaparvata lugens, larvicide, feeding/contact, rice plants; format: in vivo; conditions: Concentration 3 ppm, NILALU (contact)
Method: Rice plants were treated with the diluted test solutions in a spray chamber. After drying plants were infested with ˜20 N3 nymphs. 7 days after the treatment samples were assessed for mortality and growth regulation.

[14] = system: Frankliniella occidentalis (Western Flower Thrips); assay: Example B22: Frankliniella occidentalis, mixed population, contact/feeding, French bean plants; format: in vivo; conditions: Concentration 50 ppm, FRANOC (contact)
Method: French bean plants were treated with diluted test solutions in a spray chamber. After drying plants were infested with a mixed aged thrips population. 7 days after infestation, samples were assessed for mortality.

[15] = system: Frankliniella occidentalis (Western Flower Thrips); assay: Example B23: Frankliniella occidentalis, mixed population, systemic into soil (drench), French bean plants; format: in vivo; conditions: Concentration 3 ppm, FRANOC (drench)
Method: French bean plants cultivated in field soil, were treated via drench application and 1 day after treatment they were infested with mixed aged thrips population. 8 days after infestation samples were assessed for mortality and phytotoxicity symptoms.

[16] = system: Plutella xylostella (Diamond Back Moth); assay: Example B12: Plutella xylostella, artificial diet, eggs; format: in vivo; conditions: 192 h, application rate of 200 ppm, 8 days after infestation, read-out: effect in at least one of the two categories (mortality or growth inhibition)
Method: 24-well microtiter plates with artificial diet were treated with aqueous test solutions prepared from 10,000 ppm DMSO stock solutions by pipetting. After drying, Plutella eggs were pipetted through a plastic stencil onto a gel blotting paper and the plate was closed with it. The samples were assessed for mortality and growth inhibition in comparison to untreated samples 8 days after infestation. The following compounds gave an effect of at least 80% in at least one of the two categories (mortality or growth inhibition) at an application rate of 200 ppm: P46.

CCSc1cc(NC(=O)C2CC2)cnc1-c1nc2cc(C(F)(F)F)ncc2n1C [P1, N-[5-ethylsulfanyl-6-[3-methyl-6-(trifluoromethyl)imidazo[4,5-c]pyridin-2-yl]-3-pyridyl]cyclopropanecarboxamide]
percent effect (mortality or growth inhibition) at 200 ppm [1]: ≥ 80%
mortality at 200 ppm [2]: ≥ 80%
mortality at 200 ppm [3]: ≥ 80%

CCS(=O)(=O)c1cc(NC(=O)C2CC2)cnc1-c1nc2cc(C(F)(F)F)ncc2n1C [P2, N-[5-ethylsulfonyl-6-[3-methyl-6-(trifluoromethyl)imidazo[4,5-c]pyridin-2-yl]-3-pyridyl]cyclopropanecarboxamide]
percent effect (mortality or growth inhibition) at 200 ppm [1]: ≥ 80%
percent effect (mortality or growth inhibition) at 200 ppm [4]: ≥ 80%
mortality at 200 ppm [2]: ≥ 80%
mortality at 200 ppm [5]: ≥ 80%
mortality at 1.5 ppm ([6]; Concentration 1.5 ppm, Myzus persicae (systemic, Example B6), read-out: Mortality (%)): 80%
mortality at 24 ppm [6]: ≥ 80%
percent effect (mortality or growth inhibition) at 200 ppm [7]: ≥ 80%
mortality at 200 ppm [3]: ≥ 80%

CCS(=O)(=O)c1cc(NC(=O)C(F)(F)F)ccc1-c1nc2cc(C(F)(F)F)ncc2n1C [P3, N-[3-ethylsulfonyl-4-[3-methyl-6-(trifluoromethyl)imidazo[4,5-c]pyridin-2-yl]phenyl]-2,2,2-trifluoro-acetamide]
melting point: 260 °C

CCS(=O)(=O)c1cc(N(C)C(C)=O)cnc1-c1nc2cc(C(F)(F)F)ncc2n1C [P6, N-[5-ethylsulfonyl-6-[3-methyl-6-(trifluoromethyl)imidazo[4,5-c]pyridin-2-yl]-3-pyridyl]-N-methyl-acetamide]
mortality at 200 ppm [8]: ≥ 80%
percent effect (mortality or growth inhibition) at 200 ppm [1]: ≥ 80%
percent effect (mortality or growth inhibition) at 200 ppm [4]: ≥ 80%
mortality at 200 ppm [2]: ≥ 80%
mortality at 200 ppm [5]: ≥ 80%
mortality at 24 ppm [6]: ≥ 80%
percent effect (mortality or growth inhibition) at 200 ppm [7]: ≥ 80%
percent control (mortality, anti-feedant effect or growth inhibition) at 200 ppm [9]: ≥ 80%
mortality at 200 ppm [10]: ≥ 80%
pest or weed control at 200 ppm (Melodoigyne incognita): ≥ 80%
mortality at 3 ppm [11]: 70%
mortality at 0.2 ppm [12]: 92.5%
mortality at 3 ppm [13]: 80%
mortality at 50 ppm [14]: 98%
mortality at 3 ppm [15]: 92.5%

CCSc1cc(NC(=O)C(C)(C)O)cnc1-c1nc2cc(C(F)(F)F)ncc2n1C [P7, N-[5-ethylsulfanyl-6-[3-methyl-6-(trifluoromethyl)imidazo[4,5-c]pyridin-2-yl]-3-pyridyl]-2-hydroxy-2-methyl-propanamide]
melting point: 195 to 196 °C

CCS(=O)(=O)c1cc(N2CCSCC2=O)cnc1-c1nc2cc(C(F)(F)F)ncc2n1C [P19, 4-[5-ethyslulfonyl-6-[3-methyl-6-(trifluoromethyl)imidazo[4,5-c]pyridin-2-yl]-3-pyridyl]thiomorpholin-3-one]
pest or weed control at 200 ppm (Melodoigyne incognita): ≥ 80%
melting point: 211 to 213 °C

CCS(=O)(=O)c1cc(N(C(C)=O)C(C)C)cnc1-c1nc2cc(C(F)(F)F)ncc2n1C [P46, N-[5-ethylsulfonyl-6-[3-methyl-6-(trifluoromethyl)imidazo[4,5-c]pyridin-2-yl]-3-pyridyl]-N-isopropyl-acetamide]
mortality at 200 ppm [8]: ≥ 80%
percent effect (mortality or growth inhibition) at 200 ppm [1]: ≥ 80%
percent effect (mortality or growth inhibition) at 200 ppm [4]: ≥ 80%
mortality at 200 ppm [2]: ≥ 80%
mortality at 200 ppm [5]: ≥ 80%
mortality at 24 ppm [6]: ≥ 80%
mortality at 200 ppm [10]: ≥ 80%
percent effect (mortality or growth inhibition) at 200 ppm [16]: ≥ 80%

CCS(=O)(=O)c1ccc(N(C)C(C)=O)nc1-c1nc2cc(C(F)(F)F)ncc2n1C [reference compound]
mortality at 3 ppm [11]: 20%
mortality at 0.2 ppm [12]: 50%
mortality at 3 ppm [13]: 30%
mortality at 50 ppm [14]: 0%
mortality at 3 ppm [15]: 35%
